{"source": "patent US10500222B2", "about": "“Compositions and methods relating to treatment of infection” (Wayne State University, priority 2015, dated 2019)", "key": {"P. aeruginosa ATCC 19660": {"system": "P. aeruginosa ATCC 19660", "test": "Bacterial growth and Minimum Inhibitory Concentration (MIC), strain 19660", "format": "cell-based, Pseudomonas aeruginosa", "details": "for absorbance values of bacterial cultures: vs growth control"}, "[1]": {"system": "P. aeruginosa KEI 1025 infected cornea", "test": "Histopathology of eyes infected with KEI 1025", "format": "in vivo, C57BL/6 (B6) mice", "details": "vs PBS", "method": "The left eyes of B6 mice (n=5/group/time) were injected with 5 μl of 2 μg/μl glycyrrhizin (GLY) (Sigma-Aldrich, St. Louis, Mo.) or PBS (control) subconjunctivally, one day before infection. Similar treatment was done using carbenoxolone (CBX) (Sigma-Aldrich, St. Louis, Mo.). All mice were injected intraperitoneally (IP) at 1 and 3 days p.i. with 100 μl of GLY (2 μg/μl) or CBX (1 μg/μl). PBS served as control for all these experiments. In a separate similar experiment mice were treated one day before infection with GLY subconjunctivally and injected intraperitoneally (i.p.) with GLY plus recombinant (r) HMGB1 (1 μg/100 μl) or GLY plus PBS. IP injections were similarly given at 1 and 3 days p.i. In an additional experiment, KEI 1025 infected B6 mice were treated with 5 μl of 2 μg/μl GLY subconjunctivally at 6 hours p.i. and injected intraperitoneally at 1 and 3 days p.i. with 100 μl of GLY (2 μg/μl).\nWhole eyes infected with KEI 1025 (n=3/group/time) were enucleated from GLY or PBS treated B6 mice at 3 and 5 days p.i. Eyes were immersed in PBS, rinsed, and fixed in 1% osmium tetroxide, 2.5% glutaraldehyde, and 0.2 M Sorenson's phosphate buffer (pH 7.4) (1:1:1) at 4° C. for 3 h. Eyes were rinsed with 0.1 M phosphate buffer, dehydrated in graded ethanols and propylene oxide, and then infiltrated and embedded in Epon-araldite. Thick sections (1.5 μm) were cut, stained with Richardson's stain, observed, and photographed (Leica DM4000B, Leica Microsystems, Inc.).\nThe left eyes of B6 mice (n=5/group/time) were infected as above with Pseudomonas KEI 1025 strain. These infected B6 mice were treated by topical administration of GLY. Pseudomonas aeruginosa infected left cornea received 5 μL of GLY (20 μg/μL) topically beginning 6 (or 8) hours post infection and continued 2× daily for days 1-4 post infection."}}, "note": "Entries after “also recorded” stand apart in the source; their conditions may differ."}
{"smiles": "CC1(C)[C@@H](O[C@H]2O[C@H](C(=O)O)[C@@H](O)[C@H](O)[C@H]2O[C@@H]2O[C@H](C(=O)O)[C@@H](O)[C@H](O)[C@H]2O)CC[C@]2(C)[C@H]3C(=O)C=C4[C@@H]5C[C@@](C)(C(=O)O)CC[C@]5(C)CC[C@@]4(C)[C@]3(C)CC[C@@H]12", "note": "[GLY, glycyrrhizin]", "values": [{"measurement": "MIC50", "setting": "P. aeruginosa ATCC 19660; Pseudomonas aeruginosa, ATCC19660, strain 19660, 50% decrease in absorbance at 540 nm, 37° C., 18 h", "result": 20, "unit": "mg/mL"}, {"measurement": "MIC90", "setting": "P. aeruginosa ATCC 19660; Pseudomonas aeruginosa, ATCC19660, strain 19660, 90% decrease in absorbance at 540 nm, 37° C., 18 h", "result": 40, "unit": "mg/mL"}, {"measurement": "Minimum Inhibitory Concentration 50 (MIC50)", "setting": "P. aeruginosa ATCC 19660; cytotoxic strains", "result": 20, "unit": "milligrams/milliliter"}, {"measurement": "absorbance values of bacterial cultures", "setting": "P. aeruginosa ATCC 19660; strain 19660, grown with 10 mg/ml GLY", "result": "significantly reduced"}, {"measurement": "absorbance values of bacterial cultures", "setting": "P. aeruginosa ATCC 19660; strain 19660, grown with 20 mg/ml GLY", "result": "significantly reduced"}, {"measurement": "absorbance values of bacterial cultures", "setting": "P. aeruginosa ATCC 19660; strain 19660, grown with 40 mg/ml GLY", "result": "significantly reduced"}, {"measurement": "histopathology: cellular infiltrate, corneal destruction", "setting": "[1]; pretreatment subconj. + IP, 3 days p.i.", "result": "markedly reduced cellular infiltrate; also recorded: reduced corneal destruction and infiltrate"}, {"measurement": "histopathology: cellular infiltrate, damage to the cornea", "setting": "[1]; pretreatment subconj. + IP, 5 days p.i.", "result": "markedly reduced cellular infiltrate; also recorded: reduced damage to the cornea and a decreased cellular infiltrate"}, {"measurement": "histopathology: damage to the cornea, cellular infiltrate", "setting": "[1]; topical GLY from 6 hours p.i. and days 1-4 twice each day, 5 days p.i.", "result": "reduced damage to the cornea and a decreased cellular infiltrate"}]}
